Data taken from patent US20240270809A1, “ORAL GLP RECEPTOR AGONISTS” (priority 2020, published 2024).
Positions of bridges follow the written chain, without caps; N, C: chain ends. Non-standard residues stand in square brackets, D forms with d. Residues, ends and D or L forms follow the SMILES beside them. *: point of attachment. Malonyl(2,2-Me2,histaminyl) = CC(C)(C(=O)NCCc1cnc[nH]1)C(=O)*; Ala(1H-tetrazol-5-yl) = N[C@@H](Cc1nnn[nH]1)C(=O)O; αMePhe(2-F) = C[C@](N)(Cc1ccccc1F)C(=O)O; Nle = CCCC[C@H](N)C(=O)O; Aib = CC(C)(N)C(=O)O

Experiments:
[1] = Stability of peptides in Fasted-State Simulated Intestinal Fluid (FaSSIF); type: in vitro ADME; conditions: FaSSIF with 10 mg/ml pancreatin, 37° C.; for remaining at 0.5 h: t=30 mins, pH 6.5, 10 mg/ml pancreatin; for remaining at 0.25 h: FaSSIF pH 6.5 with 10 mg/ml pancreatin, t = 15 mins
[2] = biological target: T1, human GLP1 receptor (Homo sapiens, UniProt P43220); assay: cAMP accumulation assay, functional agonism of human GLP1 receptor; type: cell-based; conditions: HEK cells infected with human GLP1 receptor BacMam virus, HTRF cAMP; for Emax: HEK293, read-out: Human GLP-1R agonist cAMP Emax; for EC50: read-out: Human GLP-1R agonist cAMP pEC50 (converted)
T1 construct: expressed in transfected cells; host or cells: HEK cells, BacMam virus transduction
T1 sequence (P43220 24-463): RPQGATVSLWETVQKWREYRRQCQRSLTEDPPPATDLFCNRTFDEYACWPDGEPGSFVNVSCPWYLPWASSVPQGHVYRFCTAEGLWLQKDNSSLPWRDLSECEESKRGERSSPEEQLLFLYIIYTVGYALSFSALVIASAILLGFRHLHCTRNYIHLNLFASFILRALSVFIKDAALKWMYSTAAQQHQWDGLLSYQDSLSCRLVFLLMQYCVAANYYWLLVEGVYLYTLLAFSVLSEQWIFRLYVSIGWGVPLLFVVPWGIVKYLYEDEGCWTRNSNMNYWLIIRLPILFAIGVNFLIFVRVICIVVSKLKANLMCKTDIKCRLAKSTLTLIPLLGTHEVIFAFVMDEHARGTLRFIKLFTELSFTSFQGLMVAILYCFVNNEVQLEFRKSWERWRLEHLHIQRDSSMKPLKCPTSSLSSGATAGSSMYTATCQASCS
In short: (§1)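 HEK cells transduced 24 h with human GLP1 or GLP2 receptor BacMam virus, then frozen until use. Agonist stimulation for 45 min at 37 °C in HBSS with 0.5 mM IBMX; cAMP measured by HTRF after lysis.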

[3] = biological target: T2, human GLP2 receptor (Homo sapiens, UniProt O95838); assay: cAMP accumulation assay, functional agonism of human GLP2 receptor; type: cell-based; conditions: HEK cells infected with human GLP2 receptor BacMam virus, HTRF cAMP; for Emax: HEK293, read-out: Human GLP-2R agonist cAMP Emax; for EC50: read-out: Human GLP-2R agonist cAMP pEC50 (converted)
T2 construct: expressed in transfected cells; host or cells: HEK cells, BacMam virus transduction
T2 sequence (O95838 1-553): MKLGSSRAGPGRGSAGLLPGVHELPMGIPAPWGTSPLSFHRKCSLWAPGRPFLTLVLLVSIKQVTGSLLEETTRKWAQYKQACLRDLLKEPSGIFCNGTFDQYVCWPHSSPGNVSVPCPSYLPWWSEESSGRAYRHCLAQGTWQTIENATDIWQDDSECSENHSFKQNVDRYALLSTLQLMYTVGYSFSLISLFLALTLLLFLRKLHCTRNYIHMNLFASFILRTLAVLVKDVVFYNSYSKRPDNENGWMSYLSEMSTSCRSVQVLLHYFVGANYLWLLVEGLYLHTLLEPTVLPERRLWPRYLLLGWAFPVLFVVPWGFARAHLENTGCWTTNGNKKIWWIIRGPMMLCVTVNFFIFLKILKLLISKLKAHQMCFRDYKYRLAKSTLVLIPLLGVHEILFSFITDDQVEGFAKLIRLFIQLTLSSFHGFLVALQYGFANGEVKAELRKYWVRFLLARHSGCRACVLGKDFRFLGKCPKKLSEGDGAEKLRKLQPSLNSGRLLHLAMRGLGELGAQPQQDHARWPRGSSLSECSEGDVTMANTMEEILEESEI
In short: as §1

[4] = biological target: T3, mouse GLP2 receptor (Mus musculus, UniProt Q5IXF8); assay: cAMP accumulation assay, functional agonism of mouse GLP2 receptor; type: cell-based; conditions: HEK cells transiently transfected with mouse GLP2 receptor, HTRF cAMP; for Emax: HEK293, read-out: Mouse GLP-2R agonist cAMP Emax; for EC50: read-out: Mouse GLP-2R agonist cAMP pEC50 (converted)
T3 construct: expressed in transfected cells; host or cells: HEK cells, transient transfection with GeneJuice
T3 sequence (Q5IXF8 1-512): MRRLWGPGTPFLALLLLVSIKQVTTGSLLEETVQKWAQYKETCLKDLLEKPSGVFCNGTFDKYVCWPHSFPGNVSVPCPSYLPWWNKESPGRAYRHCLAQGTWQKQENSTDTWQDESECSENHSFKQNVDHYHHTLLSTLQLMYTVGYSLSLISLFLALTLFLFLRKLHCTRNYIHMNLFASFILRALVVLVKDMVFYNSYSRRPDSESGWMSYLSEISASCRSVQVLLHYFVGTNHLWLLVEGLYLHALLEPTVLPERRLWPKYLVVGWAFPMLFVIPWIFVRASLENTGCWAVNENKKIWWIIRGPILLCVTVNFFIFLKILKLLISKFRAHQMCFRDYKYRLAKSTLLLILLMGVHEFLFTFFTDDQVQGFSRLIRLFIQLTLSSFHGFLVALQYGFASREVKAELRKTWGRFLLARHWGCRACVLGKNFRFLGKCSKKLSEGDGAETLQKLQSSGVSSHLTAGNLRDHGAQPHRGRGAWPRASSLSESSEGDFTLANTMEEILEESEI
In short: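 Transiently transfected HEK cells (24 h, frozen, 8000/well) in HBSS with 0.5 mM IBMX exposed to compound concentration series for 45 min at 37 °C. cAMP measured by HTRF after lysis and 1 h at RT; pEC50 from four-parameter concentration-response fit.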

Row | SMILES | remaining at 0.5 h [1] [%] | Emax [2] [%] | EC50 [2] [pM] | Emax [3] [%] | EC50 [3] [pM] | Emax [4] [%] | EC50 [4] [pM] | remaining at 0.25 h [1] [%]
1 | CCCC[C@@H]1NC(=O)[C@H](CCC(=O)O)NC(=O)[C@@H](NC(=O)[C@H](CO)NC(=O)[C@](C)(Cc2ccccc2F)NC(=O)[C@H](CO)NC(=O)[C@@H](C)NC(=O)[C@H](CC(=O)O)NC(=O)C(C)(C)NC(=O)[C@@H](N)Cc2c[nH]cn2)CCCCNC(=O)C[C@@H](C(=O)N[C@H](C(=O)N[C@@H](CC(C)C)C(=O)N[C@@H](CC(=O)O)C(=O)N[C@H]2CCC(=O)NCCCC[C@@H](C(=O)N[C@@H](CC(=O)O)C(=O)N[C@@H](Cc3ccccc3)C(=O)N[C@H](C(=O)N[C@@H](CC(N)=O)C(=O)N[C@@H](Cc3c[nH]c4ccccc34)C(=O)N[C@@H](CC(C)C)C(=O)N[C@H](C(=O)N[C@@H](CCC(N)=O)C(=O)N[C@H]3CCC(=O)NCCCC[C@@H](C(N)=O)NC(=O)[C@H]([C@@H](C)O)NC(=O)[C@H]([C@@H](C)CC)NC(=O)[C@H](CCCCN)NC3=O)[C@@H](C)CC)[C@@H](C)CC)NC(=O)[C@H](C)NC(=O)[C@H](C)NC(=O)[C@H](CCCCN)NC2=O)[C@@H](C)CC)NC(=O)[C@@H](Cc2ccccc2)NC1=O [Example 19] (H-H[Aib]D[dA]S[αMePhe(2-F)]SKE[Nle][dF]DILDEKAAKDFINWLIQEKITK-NH2; lactam 8-12, 16-20, 29-33 (inferred); C-terminus assumed) | 12.2 | 95.4 | 251 | 103 | 10 | 101 | 794 | 
2 | CCCC[C@H](NC(=O)[C@H](CCC(=O)O)NC(=O)[C@H](CC(=O)O)NC(=O)[C@H](CO)NC(=O)[C@H](Cc1ccccc1)NC(=O)[C@H](CO)NC(=O)CNC(=O)[C@H](Cc1nn[nH]n1)NC(=O)C(C)(C)C(=O)NCCc1c[nH]cn1)C(=O)N[C@H](Cc1ccccc1)C(=O)N[C@H]1CCCCNC(=O)C[C@@H](C(=O)N[C@@H](CCCCN)C(=O)N[C@@H](C)C(=O)N[C@@H](C)C(=O)N[C@@H](CCCCN)C(=O)N[C@@H](CC(=O)O)C(=O)N[C@@H](Cc2ccccc2)C(=O)N[C@H](C(=O)N[C@@H](CC(N)=O)C(=O)N[C@@H](Cc2c[nH]c3ccccc23)C(=O)N[C@@H](CC(C)C)C(=O)N[C@H](C(=O)N[C@@H](CCC(N)=O)C(=O)N[C@H](C(=O)N[C@@H](CCCCN)C(=O)N[C@H](C(=O)N[C@H](C(=O)N[C@@H](Cc2ccccc2)C(N)=O)[C@@H](C)O)[C@@H](C)CC)[C@@H](C)O)[C@@H](C)CC)[C@@H](C)CC)NC(=O)[C@H](CC(=O)O)NC(=O)[C@H](CC(C)C)NC(=O)[C@H]([C@@H](C)CC)NC1=O [Example 91] ({Malonyl(2,2-Me2,histaminyl)}-[Ala(1H-tetrazol-5-yl)]GSFSDE[Nle][dF]KILDDKAAKDFINWLIQTKITF-NH2; lactam 10-14) |  | 98.8 | 251 | 104 | 10 |  |  | 8.8
3 | CCCC[C@@H]1NC(=O)[C@H](CCC(=O)O)NC(=O)[C@@H](NC(=O)[C@H](CO)NC(=O)[C@H](Cc2ccccc2)NC(=O)[C@H](CO)NC(=O)CNC(=O)[C@H](Cc2nn[nH]n2)NC(=O)C(C)(C)C(=O)NCCc2c[nH]cn2)CCCCNC(=O)C[C@@H](C(=O)N[C@H](C(=O)N[C@@H](CC(C)C)C(=O)N[C@@H](CC(=O)O)C(=O)N[C@H]2CCC(=O)NCCCC[C@@H](C(=O)N[C@@H](CC(=O)O)C(=O)N[C@@H](Cc3ccccc3)C(=O)N[C@H](C(=O)N[C@@H](CC(N)=O)C(=O)N[C@@H](Cc3c[nH]c4ccccc34)C(=O)N[C@@H](CC(C)C)C(=O)N[C@H](C(=O)N[C@@H](CCC(N)=O)C(=O)N[C@H](C(=O)N[C@H]3CCC(=O)NCCCC[C@@H](C(=O)N4CCC[C@H]4C(N)=O)NC(=O)[C@H]([C@@H](C)O)NC(=O)[C@H]([C@@H](C)CC)NC3=O)[C@@H](C)O)[C@@H](C)CC)[C@@H](C)CC)NC(=O)[C@H](C)NC(=O)[C@H](C)NC(=O)[C@H](CCCCN)NC2=O)[C@@H](C)CC)NC(=O)[C@@H](Cc2ccccc2)NC1=O [Example 13] ({Malonyl(2,2-Me2,histaminyl)}-[Ala(1H-tetrazol-5-yl)]GSFSKE[Nle][dF]DILDEKAAKDFINWLIQTEITKP-NH2; lactam 6-10, 14-18, 28-31 (inferred); C-terminus assumed) | 3.8 | 92.5 | 251 | 104 | 31.6 |  |  | 
4 | CCCC[C@@H]1NC(=O)[C@H](CCC(=O)O)NC(=O)[C@H](CC(=O)O)NC(=O)[C@@H](NC(=O)[C@H](Cc2ccccc2)NC(=O)[C@H](CO)NC(=O)CNC(=O)[C@H](CC(=O)O)NC(=O)C(C)(C)NC(=O)[C@@H](N)Cc2c[nH]cn2)CCC(=O)NCCCC[C@@H](C(=O)N[C@H](C(=O)N[C@H](C(=O)N[C@@H](CC(C)C)C(=O)N[C@@H](CC(=O)O)C(=O)N[C@@H](CC(C)C)C(=O)N[C@@H](CCCCN)C(=O)N[C@@H](C)C(=O)N[C@@H](C)C(=O)N[C@@H](CCCCN)C(=O)N[C@@H](CC(=O)O)C(=O)N[C@@H](Cc2ccccc2)C(=O)N[C@H](C(=O)N[C@@H](CC(N)=O)C(=O)N[C@@H](Cc2c[nH]c3ccccc23)C(=O)N[C@@H](CC(C)C)C(=O)N[C@H](C(=O)N[C@@H](CCC(N)=O)C(=O)N[C@H](C(=O)N[C@H]2CCC(=O)NCCCC[C@@H](C(N)=O)NC(=O)[C@H]([C@@H](C)O)NC(=O)[C@H]([C@@H](C)CC)NC2=O)[C@@H](C)O)[C@@H](C)CC)[C@@H](C)CC)[C@@H](C)CC)[C@@H](C)O)NC1=O [Example 111] (H-H[Aib]DGSFEDE[Nle]KTILDLKAAKDFINWLIQTEITK-NH2; lactam 7-11, 30-33 (inferred); C-terminus assumed) |  | 93.2 | 794 | 104 | 631 |  |  | 26.9
5 | CCCC[C@@H]1NC(=O)[C@H](CCC(=O)O)NC(=O)[C@@H](NC(=O)[C@H](CO)NC(=O)[C@H](Cc2ccccc2)NC(=O)[C@H](CO)NC(=O)CNC(=O)[C@H](Cc2nn[nH]n2)NC(=O)C(C)(C)C(=O)NCCc2c[nH]cn2)CCCCNC(=O)C[C@@H](C(=O)N[C@H](C(=O)N[C@@H](CC(C)C)C(=O)N[C@@H](CC(=O)O)C(=O)N[C@H]2CCC(=O)NCCCC[C@@H](C(=O)N[C@@H](CC(=O)O)C(=O)N[C@@H](Cc3ccccc3)C(=O)N[C@H](C(=O)N[C@@H](CC(N)=O)C(=O)N[C@@H](Cc3c[nH]c4ccccc34)C(=O)N[C@@H](CC(C)C)C(=O)N[C@H](C(=O)N[C@@H](CCC(N)=O)C(=O)N[C@H]3CCC(=O)NCCCC[C@@H](C(N)=O)NC(=O)[C@H]([C@@H](C)O)NC(=O)[C@H]([C@@H](C)CC)NC(=O)[C@H](CCCCN)NC3=O)[C@@H](C)CC)[C@@H](C)CC)NC(=O)[C@H](C)NC(=O)[C@H](C)NC(=O)[C@H](CCCCN)NC2=O)[C@@H](C)CC)NC(=O)[C@@H](Cc2ccccc2)NC1=O [Example 22] ({Malonyl(2,2-Me2,histaminyl)}-[Ala(1H-tetrazol-5-yl)]GSFSKE[Nle][dF]DILDEKAAKDFINWLIQEKITK-NH2; lactam 6-10, 14-18, 27-31 (inferred); C-terminus assumed) | 6.8 | 92.7 | 398 | 104 | 7.94 | 94.5 | 1580 | 
